Data from patent US10647699B2, “Substituted 2-oxyimidazolylcarboxamides as pesticides” (Bayer CropScience Aktiengesellschaft, priority 2016, dated 2020).
Where two headings read alike, the source gives them in different places.

Legend:
[1] = test system: Myzus persicae; assay: Myzus persicae spray test (MYZUPE), Chinese cabbage leaf discs; assay type: in vivo; conditions: for Emax at 100 g/ha: MYZUPE, 100 g of ai/ha, read-out: % efficacy
Procedure: Myzus persicae—Spray Test
To produce a suitable preparation of active compound, 1 part by weight of active compound is dissolved using the specified parts by weight of solvent and made up with water containing an emulsifier concentration of 1000 ppm until the desired concentration is attained. To produce further test concentrations, the formulation is diluted with emulsifier-containing water.
Discs of Chinese cabbage leaves (Brassica pekinensis) infested by all stages of the green peach aphid (Myzus persicae) are sprayed with an active compound formulation of the desired concentration.
After 5 or 6 days, the efficacy in % is determined. 100% means that all the aphids have been killed; 0% means that no aphids have been killed.
Myzus persicae—Spray Test (MYZUPE)
Discs of Chinese cabbage leaves (Brassica pekinensis) infested by all stages of the green peach aphid (Myzus persicae) are sprayed with an active compound preparation of the desired concentration.
After the desired period of time, the efficacy in % is determined. 100% means that all the aphids have been killed; 0% means that no aphids have been killed.

[2] = test system: Myzus persicae; assay: Myzus persicae oral test (MYZUPE O); assay type: in vivo; conditions: for Emax at 0.8 ppm / Emax at 4 ppm: MYZUPE O, 5 dat, read-out: % efficacy
Procedure: Solvent: 100 parts by weight of acetone
To produce a suitable preparation of active compound, 1 part by weight of active compound is dissolved using the specified parts by weight of solvent and made up with water until the desired concentration is attained.
50 μl of the active compound preparation are transferred into microtitre plates and made up to a final volume of 200 μl with 150 μl of IPL41 insect medium (33%+15% sugar). Subsequently, the plates are sealed with parafilm, which a mixed population of green peach aphids (Myzus persicae) within a second microtitre plate is able to puncture and imbibe the solution through it.
After 5 days, the efficacy in % is determined. 100% means that all the aphids have been killed; 0% means that no aphids have been killed.
Myzus persicae—Oral Test (MYZUPE O)
After 5 or 6 days (dat), the efficacy in % is determined. 100% means that all the aphids have been killed; 0% means that no aphids have been killed.

[3] = log P by HPLC on reversed-phase columns (OECD Guideline 117), neutral range; assay type: physicochemical; conditions: for chromatographic logP: reversed-phase (C18) HPLC column
[4] = after 6 days, application rate 500 g/ha
[5] = after 5 days, application rate 20 ppm
[6] = after 5 days, application rate 500 g/ha
[7] = after 5 days, application rate 4 ppm

LogP-neutral ([3]; pH 7.8) | Structure (SMILES) | efficacy [2, 5] [%] | efficacy [1, 6] [%] | other results
– | Cc1nc(C(=O)Nc2cccnc2)c[nH]1 [Comparative Ex. 1, reference compound] | – | – | Emax at 100 g/ha ([1]; Myzus persicae, foliar, 5/6 dat): 0%; Emax at 0.8 ppm ([2]; Myzus persicae, po, 120 h): 0%; Emax at 4 ppm ([2]; Myzus persicae, po, 120 h): 0%
– | O=C(Nc1cccnc1)c1c[nH]cn1 [Comparative Ex. 2, reference compound] | – | – | Emax at 100 g/ha ([1]; Myzus persicae, foliar, 144 h, 6 dat): 0%; Emax at 0.8 ppm ([2]; Myzus persicae, po, 120 h): 0%; Emax at 4 ppm ([2]; Myzus persicae, po, 120 h): 0%
0.53 | CN(C(=O)c1cnc(OCc2ncccn2)n1C)c1cccnc1 [Example II-11] | – | – | –
– | CN(C(=O)c1cnc(Oc2ccccc2Cl)n1C)c1cccnc1 [Example II-13] | 100 | – | LogP-neutral ([3]; HPLC, neutral range pH 7.8): 1.94; efficacy [1, 4]: 100%
– | CN(C(=O)c1cnc(Oc2ccccn2)n1C)c1cccnc1 [Example II-16] | 100 | – | LogP-neutral ([3]; HPLC, neutral range pH 7.8): 1.13
– | CN(C(=O)c1cnc(OCc2ccc(F)cc2)n1C)c1cccnc1 [Example II-18] | 100 | – | efficacy [1, 4]: 100%
1.75 | CCC(C)Oc1ncc(C(=O)N(C)c2cccnc2)n1C (stereo not drawn) [Example II-20] | 100 | – | efficacy [1, 4]: 100%
1.83 | CN(C(=O)c1cnc(OC2CCCC2)n1C)c1cccnc1 [Example II-21] | 90 | – | efficacy [1, 4]: 90%
2.15 | CN(C(=O)c1cnc(OC2CCCCC2)n1C)c1cccnc1 [Example II-22] | 90 | – | efficacy [1, 4]: 90%
– | CN(C(=O)c1cnc(Oc2ccc(Cl)c(Cl)c2)n1C)c1cccnc1 [Example II-28] | 90 | 100 | LogP-neutral ([3]; HPLC, neutral range pH 7.8): 2.57
1.5 | COc1ccc(Oc2ncc(C(=O)N(C)c3cccnc3)n2C)cn1 [Example II-39] | 90 | 90 | –
1.26 | Cc1ccc(Oc2ncc(C(=O)N(C)c3cccnc3)n2C)cn1 [Example II-44] | 100 | 90 | –
1.86 | CN(C(=O)c1cnc(Oc2ccc(Oc3ccc(F)nc3)nc2)n1C)c1cccnc1 [Example II-49] | 100 | 90 | –
2.3 | CN(C(=O)c1cnc(Oc2ccc(Oc3ccc(Oc4ccc(F)nc4)nc3)nc2)n1C)c1cccnc1 [Example II-50] | 100 | 90 | –
– | Cc1ccncc1Oc1ncc(C(=O)N(C)c2cccnc2)n1C [Example II-53] | 100 | 90 | LogP-neutral ([3]; HPLC, neutral range pH 7.8): 1.24
– | CN(C(=O)c1cnc(Oc2cccnc2)n1C)c1cccnc1 [Example II-55] | 100 | 100 | LogP-neutral ([3]; HPLC, neutral range pH 7.8): 1.08
1.9 | CN(C(=O)c1cnc(Oc2ccc(C(F)(F)F)nc2)n1C)c1cccnc1 [Example II-56] | 100 | 90 | –
1.78 | Cc1cc(Oc2ncc(C(=O)N(C)c3cccnc3)n2C)cnc1Cl [Example II-57] | 100 | 90 | –
1.68 | Cc1cc(Cl)ncc1Oc1ncc(C(=O)N(C)c2cccnc2)n1C [Example II-59] | 100 | 90 | –
1.28 | COc1cncc(Oc2ncc(C(=O)N(C)c3cccnc3)n2C)c1 [Example II-60] | 100 | 90 | –
1.63 | CN(C(=O)c1cnc(Oc2ccc(Br)nc2)n1C)c1cccnc1 [Example II-61] | 90 | 100 | –
– | CN(C(=O)c1cnc(Oc2cncc(C#N)c2)n1C)c1cccnc1 [Example II-62] | 100 | 90 | LogP-neutral ([3]; HPLC, neutral range pH 7.8): 1.27

LogP-neutral ([3]; pH 7.8) | Structure (SMILES) | efficacy [2, 5] [%] | efficacy [1, 6] [%] | other results
– | CN(C(=O)c1cnc(Oc2cnc3ccccc3c2)n1C)c1cccnc1 [Example II-63] | – | – | chromatographic logP ([3]; HPLC, neutral range pH 7.8, read-out: LogP-neutral): 1.72; Emax at 100 g/ha ([1]; Myzus persicae, foliar, 120 h, 5 dat): 90%; pest or weed control at 500 g/ha ([1]; Myzus persicae, foliar, 120 h, after 5 days, application rate 500 g/ha, read-out: efficacy): 90%; Emax at 0.8 ppm ([2]; Myzus persicae, po, 120 h): 90%; Emax at 4 ppm ([2]; Myzus persicae, po, 120 h): 100%; pest or weed control at 20 ppm ([2]; Myzus persicae, po, 120 h, after 5 days, application rate 20 ppm, read-out: efficacy): 100%
1.49 | COc1cc(Oc2ncc(C(=O)N(C)c3cccnc3)n2C)cnc1OC [Example II-64] | – | 100 | efficacy [2, 7]: 100%
1.4 | CN(C(=O)c1cnc(Oc2cnccc2Cl)n1C)c1cccnc1 [Example II-65] | 100 | 100 | –
– | CN(C(=O)c1cnc(Oc2cccnc2Cl)n1C)c1cccnc1 [Example II-66] | 100 | 100 | LogP-neutral ([3]; HPLC, neutral range pH 7.8): 1.45
1.62 | CN(C(=O)c1cnc(Oc2cncc(Br)c2)n1C)c1cccnc1 [Example II-67] | 100 | 100 | –
– | CN(C(=O)c1cnc(Oc2ccc(Cl)nc2)n1C)c1cccnc1 [Example II-68] | 100 | 90 | LogP-neutral ([3]; HPLC, neutral range pH 7.8): 1.45
1.94 | CN(C(=O)c1cnc(Oc2ccc(Oc3ccc(Cl)nc3)nc2)n1C)c1cccnc1 [Example II-69] | – | – | –
2.02 | COc1ncc(Cl)cc1Oc1ncc(C(=O)N(C)c2cccnc2)n1C [Example II-70] | 100 | 90 | –
– | CN(C(=O)c1cnc(Oc2cccc(C#N)c2)n1C)c1cccnc1 [Example II-72] | 100 | 90 | LogP-neutral ([3]; HPLC, neutral range pH 7.8): 1.52
2.1 | CCOc1cccc(Oc2ncc(C(=O)N(C)c3cccnc3)n2C)c1 [Example II-73] | 100 | 90 | –
1.25 | CC(=O)Nc1cccc(Oc2ncc(C(=O)N(C)c3cccnc3)n2C)c1 [Example II-74] | 100 | 90 | –
– | CCc1cccc(Oc2ncc(C(=O)N(C)c3cccnc3)n2C)c1 [Example II-75] | 100 | 90 | LogP-neutral ([3]; HPLC, neutral range pH 7.8): 2.35
1.75 | COc1cccc(Oc2ncc(C(=O)N(C)c3cccnc3)n2C)c1 [Example II-76] | – | – | –
2.39 | CN(C(=O)c1cnc(Oc2cccc(C(F)(F)F)c2F)n1C)c1cccnc1 [Example II-78] | 100 | 100 | –
– | Cc1cccc(Oc2ncc(C(=O)N(C)c3cccnc3)n2C)c1 [Example II-79] | 90 | 90 | LogP-neutral ([3]; HPLC, neutral range pH 7.8): 1.97
1.31 | CN(C(=O)c1cnc(Oc2cccc(S(C)(=O)=O)c2)n1C)c1cccnc1 [Example II-80] | 100 | 100 | –
2.42 | CN(C(=O)c1cnc(Oc2ccc(F)c(C(F)(F)F)c2)n1C)c1cccnc1 [Example II-83] | – | 90 | efficacy [2, 7]: 100%
2.04 | CON=Cc1cccc(Oc2ncc(C(=O)N(C)c3cccnc3)n2C)c1 [Example II-84] | 100 | 90 | –
0.9 | CN(C(=O)c1cnc(OCC(F)(F)F)n1C)c1cccnc1 [Example II-96] | – | – | –
– | CC(C)Oc1ncc(C(=O)Nc2cccnc2)n1C [II-1-H] | – | – | log P[n] ([3]; pH 7.8): 1.61
– | CN(C(=O)c1cnc(Cl)n1C)c1cccnc1 [IX-1, 2-chloro-N, 1-dimethyl-N-(pyridin-3-yl)-1H-imidazole-5-carboxamide] | – | – | chromatographic logP ([3]; pH 7.8, HPLC-MS, neutral, read-out: log P[n]): 0.88
– | Cn1c(C(=O)Nc2cccnc2)c[nH]c1=O [VI-1-H] | – | – | log P[n] ([3]; pH 7.8): 0.1

Structure (SMILES) | LogP-neutral ([3]; pH 7.8) | efficacy [2, 5] [%] | efficacy [1, 6] [%] | other results
CCOc1ncc(C(=O)N(CC)c2cccnc2)n1C [Example II-48] | 1.45 | 100 | 90 | –
CCN(C(=O)c1cnc(Oc2ccc(Oc3ccc(Cl)nc3)nc2)n1C)c1cccnc1 [Example II-51] | 2.26 | 100 | 100 | –
Cc1cncc(Oc2ncc(C(=O)N(C)c3cccnc3)n2C)c1 [Example II-54] | 1.31 | 100 | 90 | –
CCCc1cccc(Oc2ncc(C(=O)N(C)c3cccnc3)n2C)c1 [Example II-77] | 2.66 | 90 | 100 | –
CCN(C(=O)c1cnc(Oc2cncc(Cl)c2)n1C)c1cccnc1 [Example II-97] | 2.03 | – | – | –
